Here are results for one molecule from patent publication US20140328940A1, “MODULATION OF AXON DEGENERATION” (Genentech, Inc., priority 2009, published 2014).

The structures appear in SMILES notation.

The test system of series [1] is cortical neurons. Nature of the series: vincristine challenge of cortical neurons, LDH assay. Type of series: cell-based, rat. To be noted: 20 hour vincristine (300 nM). The method, then:
(§1) Cortical neurons were isolated using the following procedure. Rat E18 cortices devoid of meninges were dissected into ice-cold neurobasal media (Invitrogen). Cortices were dissociated in a final concentration of 0.1% trypsin/PBS (Worthington) for 30 minutes at 37° C. A final concentration of 0.1% RNase (Roche) was added to the tube and tissue was incubated at room temperature for 1 minute. Tissue was washed once with warm neurobasal media and the tissue was allowed to settle in the tube before 1 mL of neurobasal media containing 2% B27 supplement (Invitrogen) was added. Tissue was dissociated by trituration with a P1000 pipet (Rainin). The cells were counted and, for some experiments, transfected with siRNAs using a Biosystem 96-well nucleofector (Amaxa).
(§2) Cells were plated in 6- or 8-well chambers or 96-well poly-D-lysine coated dishes (BD Biosciences) at plated cell densities of 2×10^6 cells/well, 1.25-2×10^5 cells/well, or 1×10^4 cells/well, respectively, for siRNA experiments (densities that allow for some cell death normally associated with the electroporation process). […] Gene silencing was assayed 3-4 days after plating by quantitative reverse transcriptase polymerase chain reaction (qRT-PCR). […] Each reaction containing 10 ng of RNA was run in triplicate using the Quantifect SYBR Green RT-PCR kit (Qiagen) with DLK-, JNK1-, JNK2-, or JNK3-specific primers. […]

A short description of series [2]: vincristine challenge of cortical neurons, viability assay. It counts as cell-based. The following applies: rat, primary E18 cortical neurons; 12 hour vincristine (300 nM); read-out: % Viability (normalized). On the procedure:
as §1, §2

The nature of series [3]: toxin-induced degeneration of sympathetic neurons (MTT assay). Type of series: cell-based. To be noted: Sprague-Dawley, rat, primary sympathetic neurons from cervical ganglia, 24 hour vincristine, read-out: % viability (normalized). On the procedure:
Sympathetic cervical ganglia were dissected from postnatal day 1 Sprague-Dawley rats (Charles River Labs) and collected in a dish containing Ultraculture media (Lonza) with 5% fetal bovine serum (Invitrogen). Ganglia were washed twice with serum-free Ultraculture media, and a final concentration of 0.1% trypsin (Worthington) was added and incubated with the tissue at 37° C. for 30 minutes. One percent DNase (Roche) solution in PBS was added to the ganglia and incubated at room temperature for 1-2 minutes. Ganglia were washed with Ultraculture and allowed to settle to the bottom of the tube. All wash media were removed and 1 mL plating media containing Ultraculture, 5% rat serum, 1% penicillin-streptomycin, 1% glutamax, 7 μM cytosine arabinoside (Sigma), and 50 ng/mL nerve growth factor (2.5S, Cedarlane Laboratory) was added to the tube. Ganglia were dissociated by trituration using a pipet (Rainin). The cell slurry was filtered over a […] cell strainer (Falcon) and cell number was counted. Sympathetic neurons were plated at a density of 5000-7500 cells/well (96-well dish), 200,000 cells/well (6-well plate), or 100,000 cells/well (8-well chamber slide) and grown for 4-5 days in 5% CO2 at 37° C. Every other day neurons were fed with fresh plating media containing 5-10 ng/mL NGF.
NGF withdrawal assays were performed as described in Example 14A. […]
In general terms: Tetrazolium assays rely on reduction of a dye to a coloured formazan, in cell work by metabolically active cells.

In the case of `CC[C@]1(O)C[C@H]2CN(CCc3c([nH]c4ccccc34)[C@@](C(=O)OC)(c3cc4c(cc3OC)N(C=O)[C@H]3[C@@](O)(C(=O)OC)[C@H](OC(C)=O)[C@]5(CC)C=CCN6CC[C@]43[C@@H]65)C2)C1` [vincristine], in series [1], the “% cell death (normalized)” value stood at 100%. In addition, in series [2], the viability at 12 h, 0.3 µM is 77%. Moreover, in series [3], the viability at 24 h worked out at 28%.

By viability is commonly meant a per cent measure of how many cells are alive, often set against a control.
